The values that follow come from ChEMBL document CHEMBL3044954, “Insecticide Resistance and Insensitive Acetylcholinesterase in Small Brown Planthopper, Laodelphax striatellus” (J Pestic Sci, 2000).

The target of assay [1] is T1, Carboxylesterase (Laodelphax striatella) (UniProt K4JRP7).
T1 sequence (whole entry): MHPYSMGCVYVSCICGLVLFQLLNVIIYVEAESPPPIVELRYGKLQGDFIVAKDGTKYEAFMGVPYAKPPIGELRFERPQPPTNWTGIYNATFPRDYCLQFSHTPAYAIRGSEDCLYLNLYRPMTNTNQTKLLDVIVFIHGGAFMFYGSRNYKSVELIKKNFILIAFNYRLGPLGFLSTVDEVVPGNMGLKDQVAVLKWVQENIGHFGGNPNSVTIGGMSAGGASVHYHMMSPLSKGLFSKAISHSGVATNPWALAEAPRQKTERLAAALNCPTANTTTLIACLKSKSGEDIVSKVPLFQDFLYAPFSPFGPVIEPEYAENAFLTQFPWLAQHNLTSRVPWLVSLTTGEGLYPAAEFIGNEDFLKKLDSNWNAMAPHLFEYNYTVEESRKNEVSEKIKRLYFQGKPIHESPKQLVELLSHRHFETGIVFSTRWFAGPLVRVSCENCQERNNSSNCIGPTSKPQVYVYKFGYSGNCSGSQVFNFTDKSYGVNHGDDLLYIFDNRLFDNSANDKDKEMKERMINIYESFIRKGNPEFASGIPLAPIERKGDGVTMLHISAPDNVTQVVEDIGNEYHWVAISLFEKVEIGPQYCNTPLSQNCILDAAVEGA
As to the kind of experiment: Activity of aliesterase in Laodelphax striatella Kumamoto (small brown planthopper) homogenate assessed per 10 min per ug protein after 10 min by van Asperen method. The settings on record: Laodelphax striatellus.

Assay [2] addresses T1, Carboxylesterase (Laodelphax striatella). As to the kind of experiment: Ratio of activity of aliesterase in Laodelphax striatella Kumamoto (small brown planthopper) homogenate to activity of aliesterase in susceptible Laodelphax striatella homogenate. As to conditions: Laodelphax striatellus.
For assay [3] the target is unchanged. Nature of the assay: Activity of aliesterase in Laodelphax striatella Ibaraki (small brown planthopper) homogenate assessed per 10 min per ug protein after 10 min by van Asperen method. The settings on record: Laodelphax striatellus.
For assay [4] the target is unchanged. Nature of the assay: Ratio of activity of aliesterase in Laodelphax striatella Ibaraki (small brown planthopper) homogenate to activity of aliesterase in susceptible Laodelphax striatella homogenate. As to conditions: Laodelphax striatellus.
Assay [5] shares this target. As to the kind of experiment: Activity of aliesterase in susceptible Laodelphax striatella (small brown planthopper) homogenate assessed per 10 min per ug protein after 10 min by van Asperen method. As to conditions: Laodelphax striatellus.
Assay [6] addresses T2, Acetylcholinesterase (Laodelphax striatella, UniProt K4JQ36). As to the kind of experiment: Inhibition of acetylcholinesterase in susceptible Laodelphax striatella (small brown planthopper) homogenate preincubated for 10 min before substrate addition measured after 10 min by Ellman method. Also noted: species or system Laodelphax striatellus. As to conditions: read-out: I50.

The target of assay [7] is T2, Acetylcholinesterase. As to the kind of experiment: Inhibition of acetylcholinesterase in Laodelphax striatella Kumamoto (small brown planthopper) homogenate preincubated for 10 min before substrate addition measured after 10 min by Ellman method. The arrangement: species or system Laodelphax striatellus. As to conditions: read-out: I50.
Assay [8] deals with T2, Acetylcholinesterase. As to the kind of experiment: Inhibition of acetylcholinesterase in Laodelphax striatella Ibaraki (small brown planthopper) homogenate preincubated for 10 min before substrate addition measured after 10 min by Ellman method. The arrangement: species or system Laodelphax striatellus. The settings on record: read-out: I50. (In general: In Ellman's method for cholinesterases, released thiocholine reacts with DTNB.)

Assay [9] concerns Laodelphax striatellus. Nature of the assay: Insecticidal activity against Laodelphax striatella Kumamoto (small brown planthopper) assessed as mortality compound treated topically on dorsal side. The settings on record: topical.
Assay [10] concerns Laodelphax striatellus. Nature of the assay: Ratio of LD50 for Laodelphax striatella Ibaraki (small brown planthopper) to LD50 for susceptible Laodelphax striatella. Type of assay: functional.
Assay [11] deals with Laodelphax striatellus. Nature of the assay: Ratio of LD50 for Laodelphax striatella Kumamoto (small brown planthopper) to LD50 for susceptible Laodelphax striatella. Type of assay: functional.
Assay [12] has as its system Laodelphax striatellus. As to the kind of experiment: Insecticidal activity against susceptible Laodelphax striatella (small brown planthopper) assessed as mortality compound treated topically on dorsal side. Type of assay: functional. The settings on record: topical.
Assay [13] has as its system Laodelphax striatellus. As to the kind of experiment: Insecticidal activity against Laodelphax striatella Ibaraki (small brown planthopper) assessed as mortality compound treated topically on dorsal side. As to conditions: topical.
Assay [14] deals with Acetylcholinesterase (Laodelphax striatella) (UniProt K4JQ36). Nature of the assay: Ratio of I50 of acetylcholinesterase in Laodelphax striatella Ibaraki (small brown planthopper) homogenate to I50 for acetylcholinesterase in susceptible Laodelphax striatella homogenate. The settings on record: Laodelphax striatellus.
Acetylcholinesterase (Laodelphax striatella), sequence (K4JQ36 1-426): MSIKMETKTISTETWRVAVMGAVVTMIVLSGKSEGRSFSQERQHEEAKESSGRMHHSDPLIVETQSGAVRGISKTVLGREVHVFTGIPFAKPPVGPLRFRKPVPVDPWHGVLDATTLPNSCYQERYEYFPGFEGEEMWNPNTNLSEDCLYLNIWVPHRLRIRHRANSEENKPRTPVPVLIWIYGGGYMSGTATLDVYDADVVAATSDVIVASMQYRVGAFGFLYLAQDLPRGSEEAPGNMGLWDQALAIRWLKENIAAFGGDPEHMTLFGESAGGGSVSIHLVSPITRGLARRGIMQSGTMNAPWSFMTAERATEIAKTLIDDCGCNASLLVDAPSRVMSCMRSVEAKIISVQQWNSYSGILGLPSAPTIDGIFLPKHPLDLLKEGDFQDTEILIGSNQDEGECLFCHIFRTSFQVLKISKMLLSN
For assay [15] the target is unchanged. As to the kind of experiment: Ratio of I50 of acetylcholinesterase in Laodelphax striatella Kumamoto (small brown planthopper) homogenate to I50 for acetylcholinesterase in susceptible Laodelphax striatella homogenate. The settings on record: Laodelphax striatellus.

T2 sequence (K4JQ36 whole entry): as the sequence (K4JQ36 1-426) above

Take `CC(=O)Oc1cccc2ccccc12`: the Activity was determined as 29 nmol in assay [1], 27 nmol in assay [3] and 6.6 nmol in assay [5]. The Ratio in assay [2] turned out to be 4.3; in assay [4] it was 4.1.

`CNC(=O)Oc1cccc2ccccc12` [CARBARIL]: the IC50 on Acetylcholinesterase [6] is 48 nM; at Acetylcholinesterase [7] it was 310 nM; on Acetylcholinesterase [8], 48 nM.

Turning to `CNC(=O)Oc1cccc2c1OC(C)(C)C2` [CARBOFURAN], the LD50 in the assay with Laodelphax striatellus [9] is 20 mg/kg; in the assay with Laodelphax striatellus [12] it was 0.51 mg/kg; with Laodelphax striatellus [13], 1.7 mg/kg. The results for the Ratio in the assay on Laodelphax striatellus [10] and in the assay with Laodelphax striatellus [11] were 3.3 and 39, respectively.

Turning to `CCCCN(CCCC)SN(C)C(=O)Oc1cccc2c1OC(C)(C)C2` [CARBOSULFAN], the LD50 with Laodelphax striatellus [9] amounted to 42 mg/kg; with Laodelphax striatellus [12], 2.2 mg/kg. The Ratio with Laodelphax striatellus [11] turned out to be 19.

With `CCOP(=O)(OCC)Oc1cc(C)nc(C(C)C)n1` [DIAZOXON], the figures for the Ratio in assay [14] and in [15] were 1.1 and 2.4, respectively. In addition, the IC50 turned out to be 170 nM at Acetylcholinesterase [6], 400 nM on Acetylcholinesterase [7] and 190 nM on Acetylcholinesterase [8].

`CCOP(=S)(OCC)Oc1cc(C)nc(C(C)C)n1` [DIMPYLATE]: the values for the LD50 in the assay on Laodelphax striatellus [9], in the assay with Laodelphax striatellus [12] and with Laodelphax striatellus [13] were 74 mg/kg, 8.5 mg/kg and 28 mg/kg, respectively. In addition, the Ratio is on record as 3.3 in the assay on Laodelphax striatellus [10] and 8.7 in the assay with Laodelphax striatellus [11].

`CCOc1ccc(C(C)(C)COCc2cccc(Oc3ccccc3)c2)cc1` [ETOFENPROX]: the LD50 with Laodelphax striatellus [9] turned out to be 2.7 mg/kg; in the assay on Laodelphax striatellus [12], 1.6 mg/kg; in the assay with Laodelphax striatellus [13], 1.7 mg/kg. The Ratio in the assay with Laodelphax striatellus [10] was 1.1; in the assay with Laodelphax striatellus [11], 1.7.

For the compound `COP(=S)(OC)Oc1ccc([N+](=O)[O-])c(C)c1` [FENITROTHION], the LD50 with Laodelphax striatellus [9] stood at 38 mg/kg; in the assay on Laodelphax striatellus [12], 6.4 mg/kg; in the assay with Laodelphax striatellus [13], 27 mg/kg. Further, the figures for the Ratio in the assay with Laodelphax striatellus [10] and in the assay on Laodelphax striatellus [11] were 4.2 and 5.9, respectively.

Regarding `COP(=O)(OC)Oc1ccc([N+](=O)[O-])c(C)c1` [FENITROXON], the Ratio in assay [14] stood at 1; in [15] it was 2.1. Also, the IC50 at Acetylcholinesterase [6] was found to be 350 nM; at Acetylcholinesterase [7], 730 nM; at Acetylcholinesterase [8], 360 nM.

For the compound `CCC(C)c1ccccc1OC(=O)NC` (centres undefined) [FENOBUCARB], the Ratio in assay [14] was 0.9; in the assay with Laodelphax striatellus [10], 1.8; in the assay with Laodelphax striatellus [11] it was 18; in assay [15] it was 4.8. Besides, the LD50 stood at 320 mg/kg with Laodelphax striatellus [9], 18 mg/kg in the assay on Laodelphax striatellus [12] and 33 mg/kg in the assay on Laodelphax striatellus [13]. Also, the results for the IC50 at Acetylcholinesterase [6], at Acetylcholinesterase [7] and on Acetylcholinesterase [8] were 29 nM, 140 nM and 26 nM, respectively.

On to `CC(C)C(C(=O)OC(C#N)c1cccc(Oc2ccccc2)c1)c1ccc(Cl)cc1` (centres undefined) [FENVALERATE], for which, in the assay with Laodelphax striatellus [10], the Ratio came to 1.4. Further, the LD50 came out at 1.4 mg/kg in the assay on Laodelphax striatellus [12] and 1.9 mg/kg in the assay on Laodelphax striatellus [13].

With `O=[N+]([O-])/N=C1\NCCN1Cc1ccc(Cl)nc1` [IMIDACLOPRID], the results for the LD50 in the assay with Laodelphax striatellus [9], in the assay with Laodelphax striatellus [12] and in the assay on Laodelphax striatellus [13] were 0.61 mg/kg, 0.26 mg/kg and 0.26 mg/kg, respectively. Besides, the figures for the Ratio in the assay on Laodelphax striatellus [10] and in the assay on Laodelphax striatellus [11] were 1 and 2.3, respectively.

As to `CCOC(=O)CC(SP(=S)(OC)OC)C(=O)OCC` (centres undefined) [MALATHION], the LD50 with Laodelphax striatellus [9] turned out to be 380 mg/kg; in the assay with Laodelphax striatellus [12], 22 mg/kg; in the assay on Laodelphax striatellus [13], 130 mg/kg. Further, the Ratio is listed as 5.9 in the assay on Laodelphax striatellus [10] and 17 in the assay on Laodelphax striatellus [11].

One may read the LD50 as the dose expected to kill half of the subjects tested.
